The test system of experiment [1] is Trypanosoma brucei. Description: Trypanocidal activity against Trypanosoma brucei 427 blood stream forms after 64 hrs by Alamar blue assay. It counts as functional. The note with it: Trypanosoma brucei, 427, 64 h. (In general: Alamar Blue is a resazurin reagent that responds to reducing activity.)
The next experiment deals with Leishmania major. As to the kind of experiment: Antileishmanial activity against Leishmania major MHOM/IL/80/Friedlin promastigotes after 72 hrs by Alamar blue assay. Type of experiment: functional.
The next experiment relates to Trypanosoma cruzi. As to the kind of experiment: Trypanocidal activity against Trypanosoma cruzi strain CL Brener epimastogoes after 64 hrs by Alamar blue assay. It counts as functional.
The subject of experiment [2] is HeLa. As to the kind of experiment: Cytotoxicity against human HeLa cells after 64 hrs by Alamar blue assay. It counts as cell-based.
The subject of experiment [3] is Trypanosoma brucei. As to the kind of experiment: Trypanocidal activity against Trypanosoma brucei 427 procyclic forms after 64 hrs by Alamar blue assay. It counts as functional. Conditions: Trypanosoma brucei, 427, 64 h.
Another experiment relates to Vero. Description: Cytotoxicity against African green monkey Vero cells after 72 hrs by Alamar blue assay. It counts as cell-based. The note with it: Chlorocebus sabaeus.
For experiment [4], the system named is Trypanosoma brucei. As to the kind of experiment: Trypanocidal activity against Trypanosoma brucei blood stream forms. It counts as functional.
Experiment [5] relates to HeLa. Description: Cytotoxicity against human HeLa cells. It counts as cell-based.

Bounds are passed on as bounds.

Regarding `OCCCCCCOCCCC[C@H]1CCC[C@@H](Cn2cc([C@@H]3CCC[C@H](CCCCOCc4ccccc4)O3)nn2)O1`, the EC50 (as a rule, the midpoint of the concentration-response curve) in the experiment on Trypanosoma brucei [1] turned out to be 3.5 µM; in the experiment on Leishmania major, 12.4 µM; with Trypanosoma cruzi, 27.3 µM; in the experiment with HeLa [2], 21.6 µM; with Trypanosoma brucei [3], 3.8 µM.

With `COCCCCCCNC(=O)c1ccc([N+](=O)[O-])o1`, the EC50 in the experiment on Trypanosoma brucei [1] worked out at 0.73 µM; in the experiment with Leishmania major, 21 µM; in the experiment on Trypanosoma cruzi it was 8 µM; in the experiment on HeLa [2], 4.1 µM; in the experiment with Vero, 15.8 µM; in the experiment with Trypanosoma brucei [3], 0.37 µM.

Take `COCCCCCCNC(=O)c1ccco1`: the EC50 in the experiment on Trypanosoma brucei [1] was 113 µM; with Leishmania major, greater than 500 µM; in the experiment on Trypanosoma cruzi, greater than 500 µM; in the experiment on HeLa [2] it was greater than 500 µM; in the experiment on Trypanosoma brucei [3] it was 124 µM.

`Cc1nc(C(=O)NCCCCCCOCCCC[C@H]2CCC[C@@H](Cn3cc([C@@H]4CCC[C@H](CCCCOCc5ccccc5)O4)nn3)O2)co1`: the EC50 in the experiment on Trypanosoma brucei [1] worked out at 8 µM; with Leishmania major it was 21.5 µM; with Trypanosoma cruzi, 12.1 µM; with HeLa [2], 19.9 µM; in the experiment with Vero it was 13.6 µM; in the experiment on Trypanosoma brucei [3], 7.1 µM.

Consider `O=C(NCCCCCCOCCCC[C@H]1CCC[C@@H](Cn2cc([C@@H]3CCC[C@H](CCCCOCc4ccccc4)O3)nn2)O1)c1ccco1`, for which the half-maximal effective concentration (EC50) in the experiment with Trypanosoma brucei [1] is 3.8 µM; in the experiment with Leishmania major it was 7.8 µM; in the experiment on Trypanosoma cruzi, 8 µM; with HeLa [2], greater than 500 µM; in the experiment with Vero it was greater than 500 µM; with Trypanosoma brucei [3] it was 5 µM.

For the compound `OCCCCCCOCCCC[C@H]1CCC[C@@H](Cn2cc([C@@H]3CCC[C@H](CCCCO)O3)nn2)O1`, the concentration for a half-maximal effect (EC50) is 37.7 µM with Trypanosoma brucei [1]; 123 µM in the experiment with Leishmania major; 230 µM in the experiment with Trypanosoma cruzi; 6.5 to 69.3 µM in the experiment on HeLa [2]; 56.3 µM with Trypanosoma brucei [3].

Take `O=C(NCCCCCCOCCCC[C@H]1CCC[C@@H](Cn2cc([C@@H]3CCC[C@H](CCCCOCc4ccccc4)O3)nn2)O1)c1cocn1`: the concentration for a half-maximal effect (EC50) was 8.4 µM in the experiment with Trypanosoma brucei [1]; 21.6 µM with Leishmania major; 18.3 µM with Trypanosoma cruzi; 21.9 µM in the experiment on HeLa [2]; 26.6 µM in the experiment with Vero; 9.9 µM with Trypanosoma brucei [3].

With `O=C(NCCCCCCOCCCC[C@H]1CCC[C@@H](Cn2cc([C@@H]3CCC[C@H](CCCCOCc4ccccc4)O3)nn2)O1)c1ccc[nH]1`, the 50% effective concentration (EC50) in the experiment on Trypanosoma brucei [1] was 5 µM; in the experiment with Leishmania major it was greater than 500 µM; with Trypanosoma cruzi, greater than 500 µM; in the experiment with HeLa [2], greater than 100 µM; in the experiment with Trypanosoma brucei [3], 4.6 µM.

`CCCCCC[C@H]1CCC[C@@H](Cn2cc([C@@H]3CCC[C@H](CCCCCCCCCCC4=C[C@H](C)OC4=O)O3)nn2)O1`: the EC50 was greater than 500 µM in the experiment on Trypanosoma brucei [4] and greater than 1000 µM in the experiment with HeLa [5].

For `Cn1cccc1C(=O)NCCCCCCOCCCC[C@H]1CCC[C@@H](Cn2cc([C@@H]3CCC[C@H](CCCCOCc4ccccc4)O3)nn2)O1`, the EC50 in the experiment with Trypanosoma brucei [1] is 4.6 µM; with Leishmania major, 16.3 µM; in the experiment with Trypanosoma cruzi it was greater than 500 µM; in the experiment on HeLa [2], 177 µM; in the experiment on Trypanosoma brucei [3], 5 µM.

As for `Cc1ccc(C(=O)NCCCCCCOCCCC[C@H]2CCC[C@@H](Cn3cc([C@@H]4CCC[C@H](CCCCOCc5ccccc5)O4)nn3)O2)o1`, the EC50 was 4.7 to 4.9 µM with Trypanosoma brucei [1]; 16.1 µM with Leishmania major; 187 µM with Trypanosoma cruzi; 42.7 µM in the experiment on HeLa [2]; 3.1 µM with Trypanosoma brucei [3].

On to `O=C(NCCCCCCOCCCC[C@H]1CCC[C@@H](Cn2cc([C@@H]3CCC[C@H](CCCCOCc4ccccc4)O3)nn2)O1)c1ccc(Cl)o1`, for which the EC50 was 4.5 µM with Trypanosoma brucei [1]; greater than 500 µM in the experiment on Leishmania major; greater than 500 µM in the experiment with Trypanosoma cruzi; greater than 500 µM with HeLa [2]; 3.8 µM in the experiment on Trypanosoma brucei [3].

As to `NCCCCCCOCCCC[C@H]1CCC[C@@H](Cn2cc([C@@H]3CCC[C@H](CCCCOCc4ccccc4)O3)nn2)O1`, the EC50 in the experiment with Trypanosoma brucei [1] was 5.8 µM; in the experiment on Leishmania major, 19.2 µM; in the experiment with Trypanosoma cruzi, 16.7 µM; in the experiment on HeLa [2], 8.1 µM; in the experiment with Trypanosoma brucei [3], 9.1 µM.

Turning to `Cc1ccoc1C(=O)NCCCCCCOCCCC[C@H]1CCC[C@@H](Cn2cc([C@@H]3CCC[C@H](CCCCOCc4ccccc4)O3)nn2)O1`, the EC50 was 4.7 µM in the experiment on Trypanosoma brucei [1]; 67.8 µM in the experiment with Leishmania major; greater than 500 µM in the experiment on Trypanosoma cruzi; 112 µM in the experiment on HeLa [2]; 2.5 µM with Trypanosoma brucei [3].

Regarding `O=C(NCCCCCCOCCCC[C@H]1CCC[C@@H](Cn2cc([C@@H]3CCC[C@H](CCCCOCc4ccccc4)O3)nn2)O1)c1ccc([N+](=O)[O-])o1`, the EC50 with Trypanosoma brucei [1] was determined as 0.037 µM; with Leishmania major it was 11.2 µM; with Trypanosoma cruzi, 3.1 µM; with HeLa [2] it was 0.38 µM; in the experiment with Vero it was 4.5 µM; in the experiment with Trypanosoma brucei [3] it was 0.1 µM.

In the case of `O=C(NCCCCCCOCCCC[C@H]1CCC[C@@H](Cn2cc([C@@H]3CCC[C@H](CCCCOCc4ccccc4)O3)nn2)O1)c1cccs1`, the EC50 in the experiment with Trypanosoma brucei [1] is 5.1 µM; in the experiment on Leishmania major, greater than 500 µM; in the experiment with Trypanosoma cruzi, greater than 500 µM; with HeLa [2], greater than 500 µM; in the experiment with Trypanosoma brucei [3], 4.8 µM.

Take `O=C(NCCCCCCOCCCC[C@H]1CCC[C@@H](Cn2cc([C@@H]3CCC[C@H](CCCCOCc4ccccc4)O3)nn2)O1)c1cscn1`: the EC50 was 5.7 µM with Trypanosoma brucei [1]; 21.8 µM in the experiment with Leishmania major; 12.6 µM with Trypanosoma cruzi; greater than 100 µM in the experiment on HeLa [2]; 5.8 µM in the experiment with Trypanosoma brucei [3].

Regarding `O=C(NCCCCCCOCCCC[C@H]1CCC[C@@H](Cn2cc([C@@H]3CCC[C@H](CCCCOCc4ccccc4)O3)nn2)O1)c1ccccc1`, the EC50 in the experiment with Trypanosoma brucei [1] was 4.4 µM; in the experiment on Leishmania major, greater than 500 µM; with Trypanosoma cruzi it was greater than 500 µM; with HeLa [2], greater than 250 µM; with Trypanosoma brucei [3], 4.3 µM.

In the case of `c1ccc(COCCCCCCOCCCC[C@H]2CCC[C@@H](Cn3cc([C@@H]4CCC[C@H](CCCCOCc5ccccc5)O4)nn3)O2)cc1`, the EC50 in the experiment on Trypanosoma brucei [1] is 4.3 µM; with Leishmania major, 411 µM; in the experiment on Trypanosoma cruzi, greater than 500 µM; with HeLa [2], greater than 20 µM; with Trypanosoma brucei [3], 29 µM.

On to `O=C(NCCCCCCOCCCC[C@H]1CCC[C@@H](Cn2cc([C@@H]3CCC[C@H](CCCCOCc4ccccc4)O3)nn2)O1)c1ccoc1`, for which the 50% effective concentration (EC50) in the experiment with Trypanosoma brucei [1] was 3.9 µM; in the experiment with Leishmania major it was 15.2 µM; in the experiment with Trypanosoma cruzi, greater than 500 µM; with HeLa [2], greater than 500 µM; with Vero, greater than 500 µM; with Trypanosoma brucei [3], 5.4 µM.

Regarding `COCCCCCCNC(=O)c1ccnn1C`, the EC50 was 107 µM in the experiment on Trypanosoma brucei [1]; greater than 500 µM in the experiment with Leishmania major; greater than 500 µM with Trypanosoma cruzi; greater than 250 µM in the experiment with HeLa [2]; 47.4 µM in the experiment with Trypanosoma brucei [3].

On to `O=C(NCCCCCCOCCCC[C@H]1CCC[C@@H](Cn2cc([C@@H]3CCC[C@H](CCCCOCc4ccccc4)O3)nn2)O1)c1ccsc1`, for which the EC50 with Trypanosoma brucei [1] is 5.8 µM; in the experiment on Leishmania major, 15.2 µM; with Trypanosoma cruzi, greater than 500 µM; in the experiment on HeLa [2] it was greater than 500 µM; in the experiment on Vero, greater than 500 µM; with Trypanosoma brucei [3], 5 µM.

In the case of `Cn1nccc1C(=O)NCCCCCCOCCCC[C@H]1CCC[C@@H](Cn2cc([C@@H]3CCC[C@H](CCCCOCc4ccccc4)O3)nn2)O1`, the EC50 was 6.1 µM in the experiment on Trypanosoma brucei [1]; 28.7 µM in the experiment with Leishmania major; 81.8 µM in the experiment on Trypanosoma cruzi; greater than 100 µM with HeLa [2]; 5.5 µM in the experiment with Trypanosoma brucei [3].

`C[C@H]1C=C(CCCCCCCCCC[C@H]2CCC[C@@H](c3cn(C[C@@H]4CCC[C@H](CCCCOCc5ccccc5)O4)nn3)O2)C(=O)O1`: the EC50 with Trypanosoma brucei [4] worked out at 5.2 µM; in the experiment with HeLa [5], 2.1 µM.

As for `Cc1cc(C(=O)NCCCCCCOCCCC[C@H]2CCC[C@@H](Cn3cc([C@@H]4CCC[C@H](CCCCOCc5ccccc5)O4)nn3)O2)oc1C`, the concentration giving a half-maximal response (EC50) was 4.6 µM in the experiment on Trypanosoma brucei [1]; 72.3 µM in the experiment on Leishmania major; 135 µM with Trypanosoma cruzi; greater than 100 µM in the experiment with HeLa [2]; 3.9 µM with Trypanosoma brucei [3].

Turning to `CCCCCC[C@H]1CCC[C@@H](Cn2cc([C@@H]3CCC[C@H](CCCCO)O3)nn2)O1`, the results for the EC50 with Trypanosoma brucei [4] and in the experiment on HeLa [5] were 1.8 µM and 7 µM, respectively.
